Assay results taken from patent US20020169264A1, “Polymers incorporating peptides” (The Council of the Queensland Institute of Medical Research, priority 1997, published 2002).
Where two headings read alike, the source gives them in different places. Where no end group is shown, it is not given here. The star is where a group is joined. Acryloyl = C=CC(=O)*; Ahx = NCCCCCC(=O)O

Columns and labels:
lymph node T cells = assay: T cell proliferation assay, peptide monomer-primed lymph node T cells; format: cell-based, mice; details: FIG. 10
From the text: Lymph node T cells were derived from pooled inguinal and popliteal lymph node cell suspensions of mice primed seven days previously with peptide. T cells were enriched by passage through nylon wool columns^24.
(§1) Female Balb/c mice, 6 to 8 weeks of age, were used. For antibody studies, animals were inoculated i.p. with synthetic peptide in monomeric or polymeric form and emulsified in complete Freund's adjuvant (CFA). Mice received 5 or 0.5 nmoles of monomeric peptide or the equivalent number of moles of determinant within a polymer. For T-cell studies, mice were inoculated s.c. in the hind footpads with a total of 10 nmoles of T-cell determinant in CFA.
T cells were cultured (at a concentration of 3×10^5 cells/well for lymph node T cells and 1×10^4/well for the T-cell clone) in 96-well nmicrotitre trays (Nunc, Denmark) in the presence of syngenic γ-irradiated (2,200 R, ^60Co source) spleen cells as a source of antigen presenting cells, together with antigen in a total volume of 250μl^22, 23, The culture medium was RPMI 1640 supplemented with 10% heat inactivated (56° C., 30min) fetal calf serum, 2mM glutamine, 2mM sodium pyruvate, 0.1mM 2-mercaptoethanol, 30μg/ml gentamicin, 100 I.U./ml penicillin and 100μg/ml streptomycin. […] Cells were then harvested onto glass fibre filters and incorporation of ^3H-thymidine was measured on a Hewlett Packard Matrix 9600 direct β-counter.

Balb/c mice = assay: Immunogenicity in Balb/c mice, antibody titre by ELISA; format: in vivo; details: for antibody response (levels of antibody elicited): 0.5 nmole dose, FIG. 11B
From the text: as §1
Enzyme-linked immunosorbent assays (ELISAs) were performed as described^23 using microtitre plates coated with a solution of 5μg/ml peptide or polymer antigen. Bound antibody was detected by incubation with horseradish peroxidase-conjugated rabbit immunoglobulin (Ig) directed against mouse Ig (DAKO, Denmark) for 1.5h followed, after washing, with substrate (0.2mM 2,2′-azino-bis 3-ethylbenzthiazoline-sulphonic acid in 50mM citric acid pH4.0 containing 0.004% v/v hydrogen peroxide). The absorbance at a wavelength of 405nm was determined using a Labsystems Multiscan Multisoft microplate reader (Pathtech Diagnostics Pty. Ltd., Aust.) and antibody titres were expressed as the reciprocal of the antibody dilution giving an absorbance of 0.25, which corresponds to at least five times the background value.

MAb 2/1 = assay: ELISA, MAb 2/1 binding to coated peptide or polymer; design: species or system mouse
MAb 1/1 = assay: ELISA, MAb 1/1 binding to coated peptide or polymer; design: species or system mouse; details: persulphate to peptide ratios 0.1:1 to 1,000:1, in the presence of acrylamide; FIG. 8
[1] = system: virus infected P815 mastocytoma cells; format: in vivo, BALB/c mice

ALNNRFQIKGVELKS [P3]
recognition by polyclonal lymph node T cells raised against monomeric T-cell determinant peptide (lymph node T cells): equal efficiency

GMRNVPERKQT [P2]
antibody response (levels of antibody elicited) (Balb/c mice): no antibody

PKYVKQNTLKLATGMRNVPEKQT [P5]
primary antibody response (Balb/c mice; 5 nmoles of peptide epitope, i.p. in CFA): very weak | rise of antibody response following the second inoculation (Balb/c mice; 5 nmoles of peptide epitope, secondary vs primary): ~10 fold | antigenic activity (MAb 2/1 binding) after exposure to ammonium persulphate (MAb 2/1; persulphate to peptide ratios 0.1:1 to 1,000:1, in the presence of acrylamide, FIG. 8): little or no effect on antigenic activity | antigenic activity (MAb 1/1 binding) after exposure to ammonium persulphate (MAb 1/1): little or no effect on antigenic activity

TLKLATG [P1]
antibody response (levels of antibody elicited) (Balb/c mice): no antibody | binding of MAb 2/1 to coated polymers (MAb 2/1; FIG. 9): slightly reduced ability to interact with MAb

TYQRTRALV [P7]
CTL response (priming) ([1]; mouse, in vivo, sc): did

acryloyl-Ahx-CTL: acryloyl-Ahx derivative of the CTL epitope TYQRTRALV, not polymerised ({Acryloyl-Ahx}-TYQRTRALV)
CTL response (priming) ([1]; 10 μg peptide s.c. in CFA, virus infected targets, FIG. 15): did not induce a CTL response
